Source: patent US12415786B2, “Substituted 2-heteroarylaminobenzenes and the salts thereof and their use as herbicidal agents” (Bayer Aktiengesellschaft, priority 2019, dated 2025)

How the values were obtained:
Assay type in all cases: in vivo
Poa annua [1] = assay: Herbicidal pre-emergence action (greenhouse pots), POAAN; details: 1280 g/ha, visual scoring after about 3 weeks vs untreated controls
In short: (§1)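 Sandy loam, seeds covered with soil; WP or EC formulation sprayed on soil surface, 600 L/ha water + 0.5% additive; rate 1280 g/ha; greenhouse ~3 wk; visual % effect vs untreated control.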

Stellaria media [2] = assay: Herbicidal post-emergence action (greenhouse pots), STEME; details: 1280 g/ha, visual rating about 3 weeks after treatment vs untreated controls
In short: (§2)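 Weeds were sown in sandy loam and treated at the one-leaf stage, 2–3 weeks after sowing. WP or EC formulations were applied with 0.5% additive at 600 L/ha water, at a rate of 1280 g/ha. Activity was rated visually after about 3 weeks against untreated controls (0% = untreated, 100% = dead).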

Agrostis tenuis = assay: Herbicidal early post-emergence action (96-well microtiter plates), AGSTE; details: 1900 g/ha, scored 9 to 12 days after treatment, 100% = plants have died, 0% = like untreated control plants
In short: (§3)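 Weed seeds grown in quartz sand in 96-well microtiter plates in a climate chamber and treated at the cotyledon stage, 5 to 7 days after sowing, with EC formulations at 2200 L/ha water and a rate equivalent to 1900 g/ha. Visual scoring after 9 to 12 days against untreated controls (0% = control, 100% = dead).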

Setaria viridis [3] = assay: Herbicidal post-emergence action (greenhouse pots), SETVI; details: 1280 g/ha, rated after about 3 weeks, 100% = plants have died, 0% = like untreated control plants
In short: as §2

Abutilon theophrasti [4] = assay: Herbicidal post-emergence action (greenhouse pots), ABUTH; details: 1280 g/ha, visual rating about 3 weeks after treatment vs untreated controls
In short: as §2

Matricaria inodora [5] = assay: Herbicidal pre-emergence action (greenhouse pots), MATIN; details: 1280 g/ha, visual scoring after about 3 weeks vs untreated controls
In short: as §1

Amaranthus retroflexus [6] = assay: Herbicidal pre-emergence action (greenhouse pots), AMARE; details: 1280 g/ha, visual scoring after about 3 weeks vs untreated controls
In short: as §1

Setaria viridis [7] = assay: Herbicidal pre-emergence action (greenhouse pots), SETVI; details: 1280 g/ha, visual scoring after about 3 weeks vs untreated controls
In short: as §1

Poa annua [8] = assay: Herbicidal post-emergence action (greenhouse pots), POAAN; details: 1280 g/ha, visual rating about 3 weeks after treatment vs untreated controls
In short: as §2

Poa annua [9] = assay: Herbicidal early post-emergence action (96-well microtiter plates), POAAN; details: 1900 g/ha, scored 9 to 12 days after treatment, 100% = plants have died, 0% = like untreated control plants
In short: as §3

Echinochloa crus-galli [10] = assay: Herbicidal post-emergence action (greenhouse pots), ECHCG; details: 1280 g/ha, rated after about 3 weeks, 100% = plants have died, 0% = like untreated control plants
In short: as §2

Echinochloa crus-galli [11] = assay: Herbicidal pre-emergence action (greenhouse pots), ECHCG; details: 1280 g/ha, visual scoring after about 3 weeks vs untreated controls
In short: as §1

Lolium rigidum [12] = assay: Herbicidal post-emergence action (greenhouse pots), LOLRI; details: 1280 g/ha, rated after about 3 weeks, 100% = plants have died, 0% = like untreated control plants
Text: (§4) In the examples and tables below, the following abbreviations are used: • Undesired Plants/Weeds: • ABUTH: Abutilon theophrasti • AGSTE: Agrostis tenuis • AMARE Amaranthus retroflexus • ECHCG: Echinochloa crus-galli • LOLRI: Lolium rigidum • MATIN: Matricaria inodora • POAAN: Poa annua • SETVI: Setaria viridis • STEME: Stellaria media A. Herbicidal Early Post-Emergence Action Seeds of mono- and dicotyledonous weed plants were placed in plastic pots in sandy loam soil (doubly sown with in each case one species of mono- or dicotyledonous weed plants per pot), covered with soil and cultivated in a greenhouse under controlled growth conditions. 2 to 3 weeks after sowing, the test plants were treated at the one-leaf stage. The compounds of the invention, formulated in the form of wettable powders (WP) or as emulsion concentrates (EC), were applied onto the green parts of the plants as aqueous suspension or emulsion with addition of 0.5% additive at a water application rate of 600 liters per hectare (converted). After the test plants had been kept in the greenhouse under optimum growth conditions for about 3 weeks, the activity of the preparations was rated visually in comparison to untreated controls. For example, 100% activity=the plants have died, 0% activity=like untreated control plants. Tables B1-B8 below show the effects of selected compounds of the general formula (I) according to Table 1 above on various harmful plants and an application rate corresponding to 1280 g/ha, which were obtained by the experimental procedure mentioned above.

Stellaria media [13] = assay: Herbicidal pre-emergence action (greenhouse pots), STEME; details: 1280 g/ha, visual scoring after about 3 weeks vs untreated controls
In short: as §1

Matricaria inodora [14] = assay: Herbicidal post-emergence action (greenhouse pots), MATIN; details: 1280 g/ha, visual rating about 3 weeks after treatment vs untreated controls
Text: as §4

Amaranthus retroflexus [15] = assay: Herbicidal post-emergence action (greenhouse pots), AMARE; details: 1280 g/ha, visual rating about 3 weeks after treatment vs untreated controls
In short: as §2

Abutilon theophrasti [16] = assay: Herbicidal pre-emergence action (greenhouse pots), ABUTH; details: 1280 g/ha, visual scoring after about 3 weeks vs untreated controls
Text: (§5) In the examples and tables below, the following abbreviations are used: • Undesired Plants/Weeds: • ABUTH: Abutilon theophrasti • AGSTE: Agrostis tenuis • AMARE Amaranthus retroflexus • ECHCG: Echinochloa crus-galli • LOLRI: Lolium rigidum • MATIN: Matricaria inodora • POAAN: Poa annua • SETVI: Setaria viridis • STEME: Stellaria media A. Herbicidal Early Post-Emergence Action Seeds of mono- and dicotyledonous weed plants were placed in plastic pots in sandy loam soil (doubly sown with one species each of mono- or dicotyledonous weed plants per pot) and covered with soil. The compounds of the invention, formulated in the form of wettable powders (WP) or as emulsion concentrates (EC), were then applied onto the surface of the covering soil as aqueous suspension or emulsion with addition of 0.5% additive at a water application rate of 600 liters per hectare (converted). After the treatment, the pots were placed in a greenhouse and kept under good growth conditions for the test plants. After about 3 weeks, the effect of the preparations was scored visually in comparison with untreated controls as percentages. For example, 100% activity=the plants have died, 0% activity=like untreated control plants. Tables C1-C8 below show the effects of selected compounds of the general formula (I) according to Table 1 above on various harmful plants and an application rate corresponding to 1280 g/ha, which were obtained by the experimental procedure mentioned above.

Lolium rigidum [17] = assay: Herbicidal pre-emergence action (greenhouse pots), LOLRI; details: 1280 g/ha, visual scoring after about 3 weeks vs untreated controls
Text: as §5

| Compound | herbicidal activity POAAN (Poa annua [1]) [%] | herbicidal activity STEME (Stellaria media [2]) [%] | AGSTE (herbicidal activity, scored visually in comparison to untreated controls) (Agrostis tenuis) [%] | SETVI (herbicidal activity, rated visually in comparison to untreated controls) (Setaria viridis [3]) [%] | herbicidal activity ABUTH (Abutilon theophrasti [4]) [%] | herbicidal activity MATIN (Matricaria inodora [5]) [%] | herbicidal activity AMARE (Amaranthus retroflexus [6]) [%] | herbicidal activity SETVI (Setaria viridis [7]) [%] | herbicidal activity POAAN (Poa annua [8]) [%] | POAAN (herbicidal activity, scored visually in comparison to untreated controls) (Poa annua [9]) [%] | ECHCG (herbicidal activity, rated visually in comparison to untreated controls) (Echinochloa crus-galli [10]) [%] | herbicidal activity ECHCG (Echinochloa crus-galli [11]) [%] | LOLRI (herbicidal activity, rated visually in comparison to untreated controls) (Lolium rigidum [12]) [%] | herbicidal activity STEME (Stellaria media [13]) [%] | herbicidal activity MATIN (Matricaria inodora [14]) [%] | herbicidal activity AMARE (Amaranthus retroflexus [15]) [%] | herbicidal activity ABUTH (Abutilon theophrasti [16]) [%] | herbicidal activity LOLRI (Lolium rigidum [17]) [%] |
| --- | --- | --- | --- | --- | --- | --- | --- | --- | --- | --- | --- | --- | --- | --- | --- | --- | --- | --- |
| Fc1ccc(Oc2c(F)cccc2Nc2ncc(Cl)cn2)cc1 [Example 1-204] | 100 | 100 | 100 | 100 | 100 | 90 | 100 | 100 | 100 | 100 | 100 | 100 | 90 |  |  |  |  |  |
| Fc1ccc(Oc2c(Cl)cccc2Nc2ncc(Cl)cn2)cc1 [Example 1-235] | 100 | 100 | 100 |  | 100 | 100 | 100 | 100 | 100 | 100 | 100 | 90 |  | 100 | 80 | 100 |  |  |
| N#Cc1cccc(Nc2ncc(F)cn2)c1Oc1ccc(F)cc1 [Example 1-267] | 100 | 100 | 100 |  | 100 | 100 | 100 | 100 | 100 | 100 | 100 | 100 | 90 | 100 |  | 100 | 100 | 100 |
| N#Cc1cccc(Nc2ncc(F)cn2)c1Oc1ccc(F)c(F)c1 [Example 1-272] | 100 | 100 | 100 | 100 | 100 | 100 | 100 | 100 | 100 | 100 | 100 | 100 | 100 | 100 | 100 | 100 | 100 | 100 |
| N#Cc1cccc(Nc2ncc(Cl)cn2)c1Oc1ccc(F)cc1 [Example 1-286] | 100 | 100 | 100 | 100 | 100 | 100 | 100 | 100 | 100 | 100 | 100 |  | 90 | 100 |  | 100 | 90 | 90 |
| N#Cc1cccc(Nc2ncc(F)cn2)c1Oc1ccc(F)c(F)c1F [Example 1-374] | 100 | 100 | 100 |  | 100 | 100 | 100 | 100 | 100 | 100 | 100 | 100 |  | 100 | 100 | 100 |  |  |
| N#Cc1cccc(Nc2ncc(F)cn2)c1Oc1ccc(F)nc1 [Example 3-53] | 100 | 100 | 100 | 90 | 100 | 100 | 100 | 100 | 100 | 100 | 100 | 100 | 90 | 100 | 90 | 100 | 100 | 100 |
| N#Cc1cccc(Nc2ncc(Cl)cn2)c1Oc1ccc(F)nc1 [Example 3-55] | 100 | 100 | 100 | 90 | 100 | 100 | 100 | 100 | 100 | 100 |  | 100 | 90 | 100 | 90 | 100 | 100 | 100 |
